{
  "source": "patent US20240010989A1",
  "about": "“MEDIUM FOR CULTURING AND EXPANDING NEPHRON PROGENITOR CELLS, METHOD FOR CULTURING AND EXPANDING NEPHRON PROGENITOR CELLS, AND METHOD FOR PRODUCING RENAL ORGANOIDS” (Kyoto University, priority 2021, published 2024)",
  "format_in_all_cases": "cell-based, human",
  "key": {"hiPSC": {"tested_on": "hiPSC", "test": "Differentiation induction efficiency of SIX2-positive cells, hNPC from hiPSC (differentiation induction method B)", "protocol": "<Method for Differentially Inducing hNPC from hiPSC (Differentiation Induction Method B)> • 1. Undifferentiated hiPSC were converted to single cells using a TrypLE Select Enzyme (Gibco), and then using a medium prepared using DMEM/F12 Glutamax (Invitrogen) supplemented with B27 as the basal medium and adding 1 μM of CHIR99021, 10 nM of retinoic acid, 1 ng/ml of BMP4, 100 ng/ml of FGF2, 10 μM of Y-27632 and iMatrix-511 (Nippi) to this basal medium, plating was conducted at a density within a range from 1.0×10^4 cells/well to 5.0×10^4 cells/well, and the cells were then incubated for 24 hours at 37° C. (production of a late posterior epiblast: step 1). • 2. On day 1, medium replacement was conducted using a medium prepared by adding 5 μM of CHIR99021, 1 ng/ml of BMP7 and 100 ng/ml of FGF2 to the same basal medium as above (production of a mesodermal-lineage primitive streak: step 2). • 3. On day 2, medium replacement was conducted using a medium prepared by adding 5 μM of CHIR99021, 1 ng/ml of BMP7, 100 ng/ml of FGF2 and 10 μM of A83-01 to the same basal medium as above (production of a mesodermal-lineage late primitive streak: step 3). • 4. On day 3, medium replacement was conducted using a medium prepared by adding 5 μM of CHIR99021, 100 ng/ml of FGF2, 1 ng/ml of BMP7, 10 ng/ml of activin A and 30 μM of Y-27632 to the same basal medium (production of a metanephric-lineage late primitive streak: step 4). • 5. On day 6, medium replacement was conducted using a medium prepared by adding 100 nM of retinoic acid, 200 ng/ml of FGF9 and 25 ng/ml of Noggin to the same basal medium (production of a late posterior intermediate mesoderm: step 5). • 6. On day 8, medium replacement was conducted using a medium prepared by adding 1 μM of CHIR99021 and 200 ng/ml FGF9 to the same basal medium (production of hNPC: step 6)."}, "hNPC (c-MET(+)) [1]": {"tested_on": "hNPC (c-MET(+))", "test": "Expression of NPC markers OSR1 and SIX2 in subcultured hNPC (c-MET(+))", "settings": "3 nM in CFY medium, subculture of hNPC (c-MET(+))", "protocol": "(§1) Ten μL of human-HGFR/c-MET antibody to which the fluorescent substance APC had been bound (FAB 3582A, R&D Systems Inc.) was added to 100 μL of the 2% FBS suspension of the induced hNPC cells prepared above, and the resultant was left to stand for 30 minutes on ice. After 30 minutes, the sample was centrifuged at 200 g for 5 minutes, the supernatant was removed, the residue was washed with 1 mL of PBS, and the sample was once again centrifuged at 200 g for 5 minutes and the supernatant removed. This operation was conducted twice. […]\n(§2) A cell mass of the human iPS cell-derived NPC (hNPC) cultured in the test medium was transferred to a 1.5 ml tube, the supernatant was removed completely, 30 μL of Accumax (Innovative Cell Technologies, Inc.) was added, and the resultant was left to stand for 10 minutes in an incubator at 37° C. and 5% CO2. After 10 minutes, the sample was suspended in 470 μL of 10% FBS, and the cell count was measured with a TC20 (Bio-Rad Laboratories, Inc.). […] Subsequently, 48 hours after this additional administration, the above operations were repeated, with the cell count being measured and a subculture conducted.\n(§3) Expression of OSR1 and SIX2 was confirmed by conducting a culture test using these human iPS cells, and detecting the respective fluorescence from the GFP and tdTomato using a fluorescence microscope. […]"}, "hNPC (Bulk) [2]": {"tested_on": "hNPC (Bulk)", "test": "Cell growth (cell count, cumulative cell count) of hNPC (Bulk)", "settings": "3 nM in CFY medium (CFY+TG(3)) vs CFY+DMSO", "protocol": "The hNPC were suspended in 50 μL of a test medium in sufficient amount to achieve 2.0×10^4 cells per well, and the suspension was then used to inoculate a low-attachment 96-well plate (Nunc), and following centrifuging at 300 g for 3 minutes, the cells were subjected to a static culture in an incubator at 37° C. and 5% CO2. Six hours after starting the static culture, a cell mass had formed.\n(§4) Subsequently, 48 hours after the start of the static culture, an additional 100 μL of the same medium as that used at the time of cell inoculation was administered to each well. […] After 10 minutes, the sample was suspended in 470 μL of 10% FBS, and the cell count was measured with a TC20 (Bio-Rad Laboratories, Inc.).\nas §2, with “conducted. […]” for “conducted.”"}, "hNPC (Bulk) [3]": {"tested_on": "hNPC (Bulk)", "test": "Production of renal organoids from subcultured hNPC (Bulk)", "settings": "3 nM in CFY medium, cells of passage 2", "protocol": "A cell mass of hNPC that had been subcultured in the test medium were placed in a Transwell (Corning), and the surrounding medium was removed. Next, the Transwell with the cell mass thereon was set in a culture dish that had been filled with 5% KSR (Kock-out Serum Replacement) (Thermo Fisher Scientific) to which 200 ng/mL of FGF2 and 5 μM of CHIR99021 had been added in advance. After 48 hours, the medium was replaced with 5% KSR containing no added growth factors or low-molecular weight compounds. Thereafter, the medium was replaced every 48 hours with fresh 5% KSR containing no added growth factors or low-molecular weight compounds, and on the 10th day after starting the differentiation culture, the cells were fixed for 3 hours at 4° C. using 4% PFA without removal from the Transwell. Following fixing, the medium was replaced with PBS, and after standing overnight at 4° C., immunostaining was conducted.\nBright field images of renal organoids were captured using either a KEYENCE BZ-X700 or a confocal microscope (Zeiss LSM710). Image analysis was performed using Image J version 1.51j8 (National Institutes of Health) (C. A. Schneider, et al., Nat Methods. 9 (2012) 671 to 675.).\nAttempts were made to produce renal organoids from hNPC (Bulk) that had been subcultured using either the hNPSR medium or the CFY medium."}, "hNPC (c-MET(+)) [4]": {"tested_on": "hNPC (c-MET(+))", "test": "Production of renal organoids from subcultured hNPC (c-MET(+))", "settings": "3 nM in CFY medium, cells of passage 1", "protocol": "Ten μL of human-HGFR/c-MET antibody to which the fluorescent substance APC had been bound (FAB 3582A, R&D Systems Inc.) was added to 100 μL of the 2% FBS suspension of the induced hNPC cells prepared above, and the resultant was left to stand for 30 minutes on ice. After 30 minutes, the sample was centrifuged at 200 g for 5 minutes, the supernatant was removed, the residue was washed with 1 mL of PBS, and the sample was once again centrifuged at 200 g for 5 minutes and the supernatant removed. This operation was conducted twice. The cells obtained following removal of the supernatant were suspended in DAPI that had been diluted 1,000-fold with 2% FBS, and following filtration through a 40 μm filter, flow cytometry was used to extract the c-MET-positive cells.\nA cell mass of hNPC that had been subcultured in the test medium were placed in a Transwell (Corning), and the surrounding medium was removed. Next, the Transwell with the cell mass thereon was set in a culture dish that had been filled with 5% KSR (Kock-out Serum Replacement) (Thermo Fisher Scientific) to which 200 ng/mL of FGF2 and 5 μM of CHIR99021 had been added in advance. After 48 hours, the medium was replaced with 5% KSR containing no added growth factors or low-molecular weight compounds. […]"}, "hNPC (c-MET(+)) [5]": {"tested_on": "hNPC (c-MET(+))", "test": "Cell growth (cumulative cell count) in subculture of hNPC (c-MET(+))", "settings": "3 nM in CFY medium vs CFY+DMSO", "protocol": "as §1, §4\nA cell mass of the human iPS cell-derived NPC (hNPC) cultured in the test medium was transferred to a 1.5 ml tube, the supernatant was removed completely, 30 μL of Accumax (Innovative Cell Technologies, Inc.) was added, and the resultant was left to stand for 10 minutes in an incubator at 37° C. and 5% CO2. After 10 minutes, the sample was suspended in 470 μL of 10% FBS, and the cell count was measured with a TC20 (Bio-Rad Laboratories, Inc.). […]"}, "hNPC (Bulk) [6]": {"tested_on": "hNPC (Bulk)", "test": "Expression of NPC markers SIX2 and OSR1 in subcultured hNPC (Bulk)", "settings": "3 nM in CFY medium, subculture of hNPC (Bulk)", "protocol": "A cell mass of the human iPS cell-derived NPC (hNPC) cultured in the test medium was transferred to a 1.5 ml tube, the supernatant was removed completely, 30 μL of Accumax (Innovative Cell Technologies, Inc.) was added, and the resultant was left to stand for 10 minutes in an incubator at 37° C. and 5% CO2. After 10 minutes, the sample was suspended in 470 μL of 10% FBS, and the cell count was measured with a TC20 (Bio-Rad Laboratories, Inc.). The human iPS cell-derived NPC were suspended in the test medium and then used to inoculate a low-attachment 96-well plate (Nunc) in an amount of 2.0×10^4 cells per well. This low-attachment 96-well plate that had been inoculated with the cells was centrifuged at 300 g for 3 minutes, and the cells were then subjected to static culture in an incubator at 37° C. and 5% CO2. Then, 48 hours after starting this static culture, an additional 100 μL of the test medium was administered to each well. Subsequently, 48 hours after this additional administration, the above operations were repeated, with the cell count being measured and a subculture conducted.\nas §3"}},
  "data": [
    {"compound": "FGF2: fibroblast growth factor 2 (basic FGF)", "values": [
      {"measurement": "induction efficiency into hNPC", "setting": "hiPSC; FGF2 concentration in step 4 reduced to 10 ng/mL or less", "result": "decreased"},
      {"measurement": "hNPC induction efficiency", "setting": "hiPSC; concentration of FGF2 in step 3 varied (100, 30, 10 ng/ml)", "result": "no effect"}
    ]},
    {"compound": "heparin", "values": [
      {"measurement": "hNPC induction efficiency", "setting": "hiPSC; 0.18 U/ml (1 μg/ml) heparin added with FGF2 in step 4", "result": "no effect"},
      {"measurement": "hNPC induction efficiency", "setting": "hiPSC; 0.18 U/ml (1 μg/ml) heparin added with FGF9 in step 5", "result": "no effect"}
    ]},
    {"compound": "Cc1cnc(Nc2ccc(OCCN3CCCC3)cc2)nc1Nc1cccc(S(=O)(=O)NC(C)(C)C)c1", "note": "[TG101348]", "values": [
      {"measurement": "expression of both OSR1 and SIX2", "setting": "hNPC (c-MET(+)) [1]", "result": "maintained up until passage 3"},
      {"measurement": "cell growth (cell count)", "setting": "hNPC (Bulk) [2]", "result": "promoted more"},
      {"measurement": "renal organoid formation", "setting": "hNPC (Bulk) [3]", "result": "formed"},
      {"measurement": "renal organoid formation", "setting": "hNPC (c-MET(+)) [4]", "result": "formed"},
      {"measurement": "cell growth (cumulative cell count)", "setting": "hNPC (c-MET(+)) [5]", "result": "better promoted in all passages"},
      {"measurement": "expression of both OSR1 and SIX2", "setting": "hNPC (Bulk) [6]", "result": "maintained up until passage 3"}
    ]}
  ]
}
